Molecular target: human adenosine A2a receptor (Homo sapiens (Human), UniProt P29274)
Assay: A2a receptor binding affinity, [3H]-NECA radioligand binding test
Settings: [3H]-NECA 37 nM; membrane from HEK-293 cells transfected with human adenosine A2a receptor
Summary of the method: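 Membranes from HEK-293 cells expressing human A2a receptor were incubated with [3H]-NECA (final 37 nM) and compound for 1 h at room temperature in 50 mM Tris, 10 mM MgCl2, 1 mM EDTA, pH 7.4. Bound ligand was filtered on PEI-coated plates and counted by scintillation to derive IC50 (μM).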

human adenosine A2a receptor, sequence (P29274 whole entry): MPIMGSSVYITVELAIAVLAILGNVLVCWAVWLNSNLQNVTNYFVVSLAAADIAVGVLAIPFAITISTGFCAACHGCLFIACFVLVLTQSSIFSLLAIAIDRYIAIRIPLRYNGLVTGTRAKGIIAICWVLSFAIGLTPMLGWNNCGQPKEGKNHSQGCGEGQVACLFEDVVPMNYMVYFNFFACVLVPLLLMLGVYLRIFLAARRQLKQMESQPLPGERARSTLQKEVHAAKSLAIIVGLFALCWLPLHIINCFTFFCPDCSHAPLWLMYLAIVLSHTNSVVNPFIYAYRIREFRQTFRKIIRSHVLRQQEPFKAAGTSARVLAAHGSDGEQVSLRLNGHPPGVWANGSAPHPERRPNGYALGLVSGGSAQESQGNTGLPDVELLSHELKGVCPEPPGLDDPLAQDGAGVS

SMILES	IC50 [nM]
COC[C@H](Nc1nc(N)n2nc(-c3ccco3)nc2n1)C(=O)N1CCN(CC(F)F)CC1 [Example 396, (S)-2-((7-amino-2-(furan-2-yl)-[1,2,4]triazolo[1,5-a][1,3,5]triazin-5-yl)amino)-1-(4-(2,2-difluoroethyl)piperazin-1-yl)-3-methoxypropan-1-one]	29
COC1CCN(C(=O)[C@@H]2CCCN2c2nc(N)n3nc(-c4ccco4)nc3n2)CC1 [Example 146, (S)-(1-(7-amino-2-(furan-2-yl)-[1,2,4]triazolo[1,5-a][1,3,5]triazin-5-yl)pyrrolidin-2-yl)(4-methoxypiperidin-1-yl)methanone]	18
Nc1nc(N2CCC[C@H]2C(=O)N2CCN(CCCC(F)(F)F)CC2)nc2nc(-c3ccco3)nn12 [Example 239, (S)-(1-(7-amino-2-(furan-2-yl)-[1,2,4]triazolo[1,5-a][1,3,5]triazin-5-yl)pyrrolidin-2-yl)(4-(4,4,4-trifluorobutyl)piperazin-1-yl) methanone]	6
COCCOc1ccc(N2CCN(C(=O)[C@@H]3CCCN3c3nc(N)n4nc(-c5ccco5)nc4n3)CC2)cc1 [Example 310, (S)-(1-(7-amino-2-(furan-2-yl)-[1,2,4]triazolo[1,5-a][1,3,5]triazin-5-yl)pyrrolidin-2-yl)(4-(4-(2-methoxyethoxy)phenyl)piperazin-1-yl)methanone]	12
CC(C)(F)CN1CCC(C2CCN(C(=O)[C@@H]3CCN3c3nc(N)n4nc(-c5ccco5)nc4n3)CC2)CC1 [Example 322, (S)-(1-(7-amino-2-(furan-2-yl)-[1,2,4]triazolo[1,5-a][1,3,5]triazin-5-yl)azetidin-2-yl)(1′-(2-fluoro-2-methylpropyl)-[4,4′-bipiperidin]-1-yl) methanone]	6
CC(C)(O)CC(=O)N1CCN(C(=O)[C@@H]2CCCN2c2cc3nc(-c4ccco4)nn3c(N)n2)CC1 [Example 292, 1-(4-((5-amino-2-(furan-2-yl)-[1,2,4]triazolo[1,5-c]pyrimidin-7-yl)-L-prolyl)piperazin-1-yl)-3-hydroxy-3-methylbutan-1-one]	21
Cc1ccc(-c2nc3nc(N4CCC[C@H]4C(=O)N4CCN(Cc5ccc(F)cc5F)CC4)nc(N)n3n2)o1 [Example 40, (S)-(1-(7-amino-2-(5-methylfuran-2-yl)-[1,2,4]triazolo[1,5-a][1,3,5]triazin-5-yl)pyrrolidin-2-yl)(4-(2,4-difluorobenzyl)piperazin-1-yl)methanone]	4
Nc1nc(N2CCC[C@H]2C(=O)N2CC(Cc3ccccc3)C2)nc2nc(-c3ccco3)nn12 [Example 113, (S)-(1-(7-amino-2-(furan-2-yl)-[1,2,4]triazolo[1,5-a][1,3,5]triazin-5-yl)pyrrolidin-2-yl)(3-benzylazetidin-1-yl)methanone]	9
Nc1nc(N2CCC[C@H]2C(=O)N2CCC(C(=O)Nc3cnccn3)CC2)nc2nc(-c3ccco3)nn12 [Example 80, 1-((7-amino-2-(furan-2-yl)-[1,2,4]triazolo[1,5-a][1,3,5]triazin-5-yl)-L-prolyl)-N-(pyrazin-2-yl)piperidin-4-carboxamide]	7
CC(C)(F)CN1CCN(C(=O)[C@H]2CCCN2c2nc(N)n3nc(-c4ccco4)nc3n2)CC1 [Example 93, (R)-(1-(7-amino-2-(furan-2-yl)-[1,2,4]triazolo[1,5-a][1,3,5]triazin-5-yl)pyrrolidin-2-yl)(4-(2-fluoro-2-methylpropyl)piperazin-1-yl)methanone]	3790
Cc1cnc(C(=O)N2CCN(C(=O)[C@@H]3CCCN3c3nc(N)n4nc(-c5ccco5)nc4n3)CC2)s1 [Example 103]	6
CCCCN1CCN(C(=O)[C@@H]2CCCN2c2nc(N)n3nc(-c4ccco4)nc3n2)CC1 [Example 47, (S)-(1-(7-amino-2-(furan-2-yl)-[1,2,4]triazolo[1,5-a][1,3,5]triazin-5-yl)pyrrolidin-2-yl)(4-butylpiperazin-1-yl) methanone]	8
C[C@H](Nc1nc(N)n2nc(-c3ccco3)nc2n1)C(=O)N1CCC(C2CCN(CC(C)(C)O)CC2)CC1 [Example 333, (S)-2-((7-amino-2-(furan-2-yl)-[1,2,4]triazolo[1,5-a][1,3,5]triazin-5-yl)amino)-1-(1′-(2-hydroxy-2-methylpropyl)-[4,4′-bipiperidin]-1-yl)propan-1-one]	9
Nc1nc(N[C@H](C(=O)N2CCN(CC(F)(F)F)CC2)C2CC2)nc2nc(-c3ccco3)nn12 [Example 216, (S)-2-((7-amino-2-(furan-2-yl)-[1,2,4]triazolo[1,5-a][1,3,5]triazin-5-yl)amino)-2-cyclopropyl-1-(4-(2,2,2-trifluoroethyl)piperazin-1-yl)ethan-1-one]	18
Cc1ccc(-c2nc3nc(N4CCC[C@H]4C(=O)N4CCN(c5ncccn5)CC4)nc(N)n3n2)o1 [Example 203, (S)-(1-(7-amino-2-(5-methylfuran-2-yl)-[1,2,4]triazolo[1,5-a][1,3,5]triazin-5-yl)pyrrolidin-2-yl)(4-(pyrimidin-2-yl)piperazin-1-yl)methanone]	6
COC[C@H](Nc1nc(N)n2nc(-c3ccco3)nc2n1)C(=O)N1CCN(C2CCC(F)(F)CC2)CC1 [Example 398, (S)-2-((7-amino-2-(furan-2-yl)-[1,2,4]triazolo[1,5-a][1,3,5]triazin-5-yl)amino)-1-(4-(4,4-difluorocyclohexyl)piperazin-1-yl)-3-methoxypropan-1-one]	20
CCCCN1CCN(C(=O)[C@H](COC)Nc2nc(N)n3nc(-c4ccco4)nc3n2)CC1 [Example 401, (S)-2-((7-amino-2-(furan-2-yl)-[1,2,4]triazolo[1,5-a][1,3,5]triazin-5-yl)amino)-1-(4-butylpiperazin-1-yl)-3-methoxypropan-1-one]	11
CCC(F)(CC)CN1CCN(C(=O)[C@@H]2CCCN2c2nc(N)n3nc(-c4ccco4)nc3n2)CC1 [Example 43, (S)-(1-(7-amino-2-(furan-2-yl)-[1,2,4]triazolo[1,5-a][1,3,5]triazin-5-yl)pyrrolidin-2-yl)(4-(2-ethyl-2-fluorobutyl)piperazin-1-yl)methanone]	11

Continued by falling IC50, values first:

IC50 [nM]	SMILES
4	CC(F)(F)CN1CCN(C(=O)[C@@H]2CCCN2c2cc3nc(-c4ccco4)nn3c(N)n2)CC1 [Example 294, (S)-(1-(5-amino-2-(furan-2-yl)-[1,2,4]triazolo[1,5-c]pyrimidin-7-yl)pyrrolidin-2-yl)(4-(2,2-difluoropropyl)piperazin-1-yl)methanone]
3	Cc1cccc(NC(=O)N2CCN(C(=O)[C@@H]3CCCN3c3nc(N)n4nc(-c5ccco5)nc4n3)CC2)c1 [Example 61, 4-((7-amino-2-(furan-2-yl)-[1,2,4]triazolo[1,5-a][1,3,5]triazin-5-yl)-L-prolyl)-N-(m-tolyl)piperazin-1-carboxamide]
3	CC(C)(F)CN1CCN(C(=O)[C@@H](Nc2nc(N)n3nc(-c4ccco4)nc3n2)c2ccccc2)CC1 [Example 195, (S)-2-((7-amino-2-(furan-2-yl)-[1,2,4]triazolo[1,5-a][1,3,5]triazin-5-yl)amino)-1-(4-(2-fluoro-2-methylpropyl)piperazin-1-yl)-2-phenylethan-1-one]
2.42	C[C@H](Nc1nc(N)n2nc(-c3ccco3)nc2n1)C(=O)N1CCN(c2ccc(F)cc2F)CC1 [Example 9, (S)-2-((7-amino-2-(furan-2-yl)-[1,2,4]triazolo[1,5-a][1,3,5]triazin-5-yl)amino)-1-(4-(2,4-difluorophenyl)piperazin-1-yl)propan-1-one]
2	CC(F)(F)CN1CCC(C2CCN(C(=O)[C@@H]3CCN3c3cc4nc(-c5ccco5)nn4c(N)n3)CC2)CC1 [Example 379, (S)-(1-(5-amino-2-(furan-2-yl)-[1,2,4]triazolo[1,5-c]pyrimidin-7-yl)azetidin-2-yl)(1′-(2,2-difluoropropyl)-[4,4′-bipiperidin]-1-yl)methanone]
2	C[C@@H]1CN(CC(C)(C)O)CCN1C(=O)[C@@H]1CCCN1c1nc(N)n2nc(-c3ccco3)nc2n1 [Example 373, ((S)-1-(7-amino-2-(furan-2-yl)-[1,2,4]triazolo[1,5-a][1,3,5]triazin-5-yl)pyrrolidin-2-yl)((R)-4-(2-hydroxy-2-methylpropyl)-2-methylpiperazin-1-yl)methanone]
1	Cc1ccc(-c2nc3nc(N4CC[C@H]4C(=O)N4CCN(c5ccc(F)cc5F)CC4)nc(N)n3n2)o1 [Example 209, (S)-(1-(7-amino-2-(5-methylfuran-2-yl)-[1,2,4]triazolo[1,5-a][1,3,5]triazin-5-yl)azetidin-2-yl)(4-(2,4-difluorophenyl)piperazin-1-yl)methanone]
1	CCC(F)(F)CN1CCN(C(=O)[C@@H]2CCCN2c2cc3nc(-c4ccco4)nn3c(N)n2)CC1 [Example 295, (S)-(1-(5-amino-2-(furan-2-yl)-[1,2,4]triazolo[1,5-c]pyrimidin-7-yl)pyrrolidin-2-yl)(4-(2,2-difluorobutyl)piperazin-1-yl)methanone]
0.8	Nc1nc(N2CCC[C@H]2C(=O)N2CCN(CC(F)(F)C(F)(F)F)CC2)cc2nc(-c3ccco3)nn12 [Example 296, (S)-(1-(5-amino-2-(furan-2-yl)-[1,2,4]triazolo[1,5-c]pyrimidin-7-yl)pyrrolidin-2-yl)(4-(2,2,3,3,3-pentafluoropropyl)piperazin-1-yl)methanone]
0.3	C[C@H](Nc1nc(N)n2nc(-c3ccco3)nc2n1)C(=O)N1CCN(c2ncccn2)CC1 [Example 240, (S)-2-((7-amino-2-(furan-2-yl)-[1,2,4]triazolo[1,5-a][1,3,5]triazin-5-yl)amino)-1-(4-(pyrimidin-2-yl)piperazin-1-yl)propan-1-one]
0.214	Nc1nc(N[C@@H](Cc2ccccc2)C(=O)N2CCN(S(=O)(=O)c3ccccc3)CC2)nc2nc(-c3ccco3)nn12 [Example 6, (S)-2-((7-amino-2-(furan-2-yl)-[1,2,4]triazolo[1,5-a][1,3,5]triazin-5-yl)amino)-3-phenyl-1-(4-(phenylsulfonyl)piperazin-1-yl)propan-1-one]

— patent publication US20240217978A1 (CHONG KUN DANG PHARMACEUTICAL CORP., priority 2021, published 2024)
